The values below come from patent US11648289B2, “Antibacterial method” (priority 2016, dated 2023).

No end group written: not given here. A value given as a limit tells only on which side of the number the result lay.

One assay deals with E. faecalis LMGT 3572. Here is the method: (§1) Bacterial strains, growth conditions, bacteriocins and antimicrobial assays. All the strains (see below) used in minimal inhibitory concentration (MIC) assays (Varahan et al., 2014, M. Bio. 5:e01726-01714) were grown in BHI medium (Oxoid) at 30° C. without shaking. A collection of E. faecium strains isolated from blood in patients from different European hospitals was received from Department of Medical Microbiology, University Medical Center Utrecht, the Netherlands. […] Synthesized peptides were solubilized to concentrations of 10.0-0.1 mg/ml in 0.1% (vol/vol) trifluoroacetic acid and stored at −20° C. until use. […] Bacteriocin activity was determined by microtiter plate assay as previously described (Holo et al., 1991, J. Bacteriol., 173:3879-3887). The MIC was defined as the minimal bacteriocin concentration that inhibited the growth of the indicator strain by at least 50% (50% of the turbidity of the control culture without bacteriocin) in 200 μl culture. CD Spectroscopy Circular dichroism (CD) spectra were recorded using a Jasco J-810 spectropolarimeter (Jasco International Co) calibrated with D-camphor-10-sulfonate (Icatayama Chemical). All measurements were made using a quartz cuvette (Sterna) with 0.1 cm path length. Samples were scanned five times with a scanning rate of 50 nm/min with a bandwidth of 0.5 nm and response time of 1 s over the wavelength range 190-250 nm. Spectra were recorded at different (30 and 50%) trifluoroethanol (TFE) (Aldridge) concentrations at 25° C. The approximate α-helical content of the protein was estimated from its molar ellipticity at 222 nm (Scholtz et al., 1991, Biopolymers 31:1463-1470). NMR Spectroscopy The experiments were run on a sample containing 1.0 mM EntK1, 50% D3-TFE (99.5% D) (Aldrich), Milli-Q water and 0.2 mM of 4,4-dimethyl-4-silapentane-1-sulfonic acid (DSS) (Larodan). 2D NOESY (Jeener et al., 1979, J. Magn. Reson., 71:4546-4553), 2D TOCSY (Braunschweiler and Ernst, 1983, J. Magn. Reson., 53:521-528), 2D DQCOSY, ^15N-HSQC (Davis et al., 1992, J. Magn. Reson., 98:207-216) and ^13C-HSQC (Hurd, 1991, J. Magn. Reson., 91:648-653) were recorded. The data was acquired on a 600 MHz Bruker Avance II spectrometer with four channels and a 5 mm TCI cryoprobe (Bruker Biospin). NOESY spectra with mixing times between 120 ms and 300 ms were obtained for both samples. TOCSY mixing times of 15-80 ms were used. The experiments were run at 298.15 K. Spectra were processed using the Topspin program (Bruker Biospin). 4,4-dimethyl-4-silapentane-1-sulfonic acid (DSS) was used as a chemical shift standard, and ^15N and ^13C data were referenced using frequency ratios as described in (Wishart et al., 1995, J. Biomol. NMR., 6:135-140). For visualization, assignment and integration of the spectra the computer program CARA was used (Keller, 2004, The Computer Aided Resonance Assignment Tutorial. CANTINA Verlag, Goldau, Switzerland). The spectra were assigned using standard methods. Dihedral angle restraints were obtained from the chemical shift values using the program TALOS-N(Shen and Bax, 2013, J. Biomol. NMR, 56:227-241). Nuclear Overhauser effect (NOE) distance restraints were calculated from the peak volumes in the NOESY spectra with NOESY mixing time of 200 ms. All structure calculations were made using the structure calculation program CYANA 2.1 (Guntert et al., 1997, J. Mol. Biol., 273:283-298; Herrmann et al., 2002, J. Mol. Biol., 319:209-227). The annealing macro in CYANA calculated 100 structures. The 20 structures with the lowest energy were kept and analyzed further. The root-mean-square deviation (RMSD) was calculated and the structures were visualized using MolMol (Koradi et al., 1996, J. Mol. Graph., 14:51-55, 29-32). Generation of bacteriocin resistant mutants of E. faecalis and E. faecium.

Another assay concerns E. faecalis LMGT 3359. Here is the method:
as §1

For the next assay, the system named is E. faecalis LMGT 3330. The procedure:
as §1

A further assay concerns E. hirae LMGT 3236. The procedure: as §1
For the next assay, the system named is S. aureus LMGT 3266. Here is the method: as §1
In another assay the test system is E. faecium LMGT 3110. Here is the method:
as §1

For a further assay, the system named is L. lactis LMGT 2233. Here is the method:
as §1

In a further assay the test system is L. cremoris LMGT 2057. Here is the method:
as §1

The test system of another assay is L. lactis LMGT 2095. The procedure:
as §1

In a further assay the test system is S. aureus LMGT 3289. Here is the method:
as §1

For another assay, the system named is E. faecium LMGT 3599. Here is the method: as §1
A further assay has as its system E. faecium LMGT 3313. Here is the method:
as §1

A further assay relates to S. pneumoniae ms5. Particulars: for MIC: ms5, rseP HExxH>AAxxA, induced with ComS (2 μM). Here is the method: as §1
Assay [1] relates to Bacillus cereus LMGT 2805. Here is the method: as §1
Another assay deals with S. pneumoniae ms1. Particulars: ms1, rseP H18>A, induced with ComS (2 μM). Here is the method: as §1
The subject of assay [2] is Staphylococcus. aureus LMGT 3310. The procedure:
as §1

Another assay has as its system L. garvieae LMGT 2217. The procedure: as §1
The next assay relates to E. faecalis LMGT 3200. Here is the method: as §1
The subject of another assay is L. lactis IL1403. Here is the method: as §1
For a further assay, the system named is E. faecalis LMGT 3358. Here is the method:
as §1

Another assay relates to S. pneumoniae ms2. The following applies: ms2, rseP E19>A, induced with ComS (2 μM). The procedure:
as §1

Another assay concerns S. aureus LMGT 3260. Here is the method:
as §1

On to “MKFKFNPTGTIVKKLTQYEIAWFKNKHGYYPWEIPRC [EntK1]”, for which the “MIC 50” value with E. faecalis LMGT 3572 was greater than 5.5 µM; against E. faecalis LMGT 3359, greater than 5.5 µM; in the assay with E. faecalis LMGT 3330 it was greater than 5.5 µM; in the assay on E. hirae LMGT 3236, 0.045 µM; in the assay on S. aureus LMGT 3266 it was greater than 5.5 µM; in the assay with E. faecium LMGT 3110 it was 0.045 µM. The “MIC 50” value was greater than 5.5 µM against L. lactis LMGT 2233; greater than 5.5 µM with L. cremoris LMGT 2057; greater than 5.5 µM in the assay on L. lactis LMGT 2095; greater than 5.5 µM against S. aureus LMGT 3289; 0.085 µM against E. faecium LMGT 3599; 0.085 µM in the assay with E. faecium LMGT 3313. In addition, the “MIC 50” value in assay [1] is greater than 5.5 µM; in assay [2] it was greater than 5.5 µM; in the assay on L. garvieae LMGT 2217, 0.34 µM; against E. faecalis LMGT 3200 it was greater than 5.5 µM; in the assay with L. lactis IL1403, 0.17 µM; with E. faecalis LMGT 3358 it was 2.7 µM. For the same sequence, the “MIC 50” value with S. aureus LMGT 3260 is greater than 5.5 µM. Further, the MIC against S. pneumoniae ms5, against S. pneumoniae ms1 and in the assay with S. pneumoniae ms2 was greater than 5.5 µM in each case.

For “MKTILRFVAGYDIASHKKKTGGYPWERGKA [LsbB, reference compound]”, the “MIC 50” value with E. faecalis LMGT 3572, with E. faecalis LMGT 3359, against E. faecalis LMGT 3330, with E. hirae LMGT 3236, in the assay on S. aureus LMGT 3266 and against E. faecium LMGT 3110 was greater than 7 µM in each case. The “MIC 50” value against L. lactis LMGT 2233, with L. cremoris LMGT 2057, in the assay on L. lactis LMGT 2095, with S. aureus LMGT 3289, against E. faecium LMGT 3599 and against E. faecium LMGT 3313 was greater than 7 µM each time. Moreover, the “MIC 50” value in [1] is greater than 7 µM; in [2], greater than 7 µM; in the assay on L. garvieae LMGT 2217, greater than 7 µM; in the assay with E. faecalis LMGT 3200 it was greater than 7 µM; in the assay on L. lactis IL1403, 0.0005 µM; with E. faecalis LMGT 3358, greater than 7 µM. Besides, the “MIC 50” value in the assay on S. aureus LMGT 3260 is greater than 7 µM. For the same sequence, the minimum inhibitory concentration (MIC) against S. pneumoniae ms5, with S. pneumoniae ms1 and with S. pneumoniae ms2 was greater than 7 µM in each case. The “times more potent than EntEJ97” value with L. lactis IL1403 is on record as roughly 70 times. For the same sequence, the “times more potent than EntK1” value in the assay with L. lactis IL1403 was “about 340 times”.

On to “MLAKIKAMIKKFPNPYTLAAKLTTYEINWYKQQYGRYPWERPVA [EntEJ97]”, for which the “MIC 50” value in the assay on E. faecalis LMGT 3572 is 0.145 µM; in the assay on E. faecalis LMGT 3359, 0.145 µM; in the assay on E. faecalis LMGT 3330 it was 0.145 µM; against E. hirae LMGT 3236 it was 0.075 µM; against S. aureus LMGT 3266, 1.175 µM; against E. faecium LMGT 3110, 0.295 µM. Besides, the “MIC 50” value is 0.145 µM against L. lactis LMGT 2233; 0.145 µM in the assay with L. cremoris LMGT 2057; 0.145 µM with L. lactis LMGT 2095; greater than 4.7 µM against S. aureus LMGT 3289; 0.145 µM in the assay on E. faecium LMGT 3599; 0.145 µM in the assay on E. faecium LMGT 3313. Besides, the “MIC 50” value in [1] was greater than 4.7 µM; in [2], 0.59 µM; against L. garvieae LMGT 2217 it was 0.295 µM; against E. faecalis LMGT 3200 it was 0.295 µM; against L. lactis IL1403, 0.037 µM; in the assay on E. faecalis LMGT 3358 it was 0.075 µM. In addition, the “MIC 50” value against S. aureus LMGT 3260 amounted to 2.3 µM. The “times more resistant than the WT” value with S. pneumoniae ms5 (all three conserved RseP residues replaced with alanines) is 30 times. The MIC came to 0.6 µM with S. pneumoniae ms5, 0.3 µM against S. pneumoniae ms1 and 0.3 µM against S. pneumoniae ms2.
